Literature values, collected in patent US7858118B2, “Extended release composition containing Tramadol” (Galephar Pharmaceutical Research, Inc., priority 2001, dated 2010).
Read-outs that look alike come from different tables or passages of the source.

Assays:
[1] = after oral administration of immediate release dosage form
[2] = in words
[3] = animal models
[4] = tested on: μ-opioid receptors
[5] = single 100 mg oral dose, healthy subjects

Row | SMILES | maximum plasma concentration of the [+]-enantiomer of Tramadol (100 mg dose) | maximum plasma concentration of the [−]-enantiomer of Tramadol (100 mg dose) | maximum plasma concentration of the [−]-M1 enantiomer (100 mg dose of Tramadol, first value of the pair) | maximum plasma concentration of the other M1 enantiomer (not given) (100 mg dose of Tramadol, second value of the pair) | maximum plasma concentration at steady state (100 mg four times daily) | time to steady state (100 mg four times daily) | mean absolute bioavailability (100 mg oral dose) | time to peak plasma concentrations (immediate release, oral (b6)) | plasma half-life (multiple dosing) | effect of food on rate or extent of absorption (oral, immediate release) | mean peak plasma concentration of the active mono-O-desmethyl metabolite (single 100 mg oral dose of Tramadol) | time of peak plasma concentration of the mono-O-desmethyl metabolite (single 100 mg oral dose of Tramadol, post-dose) | mean peak plasma concentration of Tramadol [5] | time of mean peak plasma concentration of Tramadol [5] | plasma half-life (single dosing) | onset of analgesia [1] | solubility in water and body fluids [2] | potency relative to Tramadol in producing analgesia [3] | potency relative to Tramadol in u-opioid binding [4]
1 | COc1cccc(C2(O)CCCCC2CN(C)C)c1 (stereo not shown) [Tramadol] | 168 ± 36 ng/mL | 148 ± 33 ng/mL | 35 ± 10 ng/mL | 26 ± 13 ng/mL | 592 ± 177 ng/mL | 2 days | ≈ 75% | ≈ 2 hours | 7 h | does not significantly affect | 55 ± 20 ng/mL | ≈ 3 hours | 308 ± 78 ng/mL | ≈ 2 hours | 6 h | ≤ 1 h | extremely high solubility |  | 
2 | CN(C)C[C@H]1CCCC[C@]1(O)c1cccc(O)c1 [Example M1, O-desmethyl tramadol] |  |  |  |  |  |  |  |  |  |  |  |  |  |  |  |  |  | up to 6 times | 200 times
